Where a name gives a salt, the structure may show the parent alone.
Columns and labels:
IRAK4 [1] = molecular target: T1, IRAK4 (Homo sapiens, UniProt Q9NWZ3); assay: IRAK4 PhosphoSens Biochemical Assay (BIOCHEM); conditions: IRAK4 1 nM; ATP and Sox conjugated peptide substrate AQT0326; pH 7.5; room temperature; 240 minutes
T1 sequence (Q9NWZ3 1-460): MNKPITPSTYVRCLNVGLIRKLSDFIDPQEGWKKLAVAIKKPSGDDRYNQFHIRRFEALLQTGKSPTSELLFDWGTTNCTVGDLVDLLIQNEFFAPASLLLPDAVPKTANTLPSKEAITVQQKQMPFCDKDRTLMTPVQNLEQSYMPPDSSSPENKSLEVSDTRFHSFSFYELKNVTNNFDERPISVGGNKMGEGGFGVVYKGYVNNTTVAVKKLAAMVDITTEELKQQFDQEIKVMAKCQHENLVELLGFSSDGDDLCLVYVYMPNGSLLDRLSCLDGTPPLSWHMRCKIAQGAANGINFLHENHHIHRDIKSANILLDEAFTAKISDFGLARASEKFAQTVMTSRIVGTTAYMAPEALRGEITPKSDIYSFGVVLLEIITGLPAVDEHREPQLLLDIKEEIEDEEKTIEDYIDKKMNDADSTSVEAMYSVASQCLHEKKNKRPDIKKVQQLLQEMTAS
Description: The PhosphoSens® biochemical assay was performed as described by the vendor (AssayQuant Technologies Inc. Marlborough, MA). A 1.25× stock solution of IRAK4 (PV4002, ThermoFisher Scientific, Waltham, MA) and a 5× stock solution of ATP and Sox conjugated peptide substrate, AQT0326 (CSKS-AQT0326B, AssayQuant Technologies), were prepared in 1× kinase reaction buffer consisting of 50 mM HEPES, pH 7.5, 0.01% Brij-35, 0.5 mM EGTA, 20 mM MgCl2 and 1 mM DTT. 10 μL of the ATP and substrate solution mix, for a final concentration of 200 µM ATP and […] peptide substrate, was added to a Corning 3574 384-well, white, non-binding surface microtiter plate containing 0.5 μL of serially diluted test compounds prepared in DMSO. The reactions were started with the addition of 40 μL of the enzyme solution, for a final IRAK4 concentration of 1 nM, and monitored every 71 seconds for 240 minutes at λEX 360/λEM 485 in a BioTek Synergy H4 plate reader (Agilent Technologies, Santa Clara, CA) at room temperature. The initial linear portions of the progress curves were fit according to a linear equation to yield the slopes and converted to % inhibition based on a value of 100% activity for the no inhibitor treated control. IC50 values of each compound were obtained by fitting the % inhibition-compound concentration curves using Dotmatics software (Dotmatics, Bishops Stortford, Hertfordshire, England),

IRAK4 [2] = molecular target: T1, IRAK4; assay: ALE THP1 HTRF (IRAK4 HTRF in THP1 cell lysate, Cisbio HTRF kit); assay type: cell-based; set-up: THP1 Homogeneous Time Resolved Fluorescence (ALE THP1 HTRF) Procedure; endogenous in cells; host or cells: THP1; conditions: anti-IRAK4 d2 / anti-IRAK4 k antibodies
Description: Cell culture media was prepared in a tissue culture hood in a sterile environment by adding 10% FBS and 1% Penicillin Streptomycin to 500 mL no phenol red RPMI 1640 media. The media was filtered through a Nalgene Bottle Top Filter and stored at 4° C.
For Homogenous Time Resolved Fluorescence (HTRF) assays, a Cisbio HTRF kit was used, which included: Lysis Buffer #1 4×, Blocking Reagent #3 100×, 20× Antibody 1 (Anti-IRAK4 d2), 20× Antibody 2 (Anti-IRAK4 k), and Detection Buffer.
4× Lysis Buffer was stored at 4° C. For use as 1× Lysis buffer, the 4× solution was diluted with de-ionized water (distilled water, Gibco Cat. #15230279) and 100× Blocking Reagent in a 1:3:0.04 volume ratio.
20× Antibody Solution aliquots were stored at −80° C. and the Detection Buffer was stored at 4° C. For use as a 1× Antibody Solution, the 20× Antibody Solution aliquot was diluted with Detection Buffer in a 1:19 volume ratio.
Cells were lysed at room temperature for 45 min with shaking. A BCA protein assay was performed and normalization was conducted to the desired total protein concentration with 1× lysis buffer. Next, 1× Antibody Solutions were prepared by adding 380 μL Detection Buffer to 20 μL 20× Antibody Solution aliquots and mixing well. 1× Antibody Solutions were combined 1:1 and briefly vortexed. For control wells, 20 μL 1× anti IRAK4-k Antibody Solution was saved. The 384-well plate (ProxiPlate-384 Plus, Perkin Elmer Cat. #6008289) was loaded by adding 4 μL of the mixed Antibody Solution to empty wells using a single channel repeater. Using a multi-channel repeater, 16 μL lysate was added per well, and any bubbles that were formed were popped with 20 μL pipette tips and Kimwipe edges. In column 10, triplicates of each control were prepared. In wells A10, B10, and C10, buffer control was prepared by adding 16 μL Lysis Buffer and 4 μL Detection Buffer. In wells D10, E10, and F10, cryptate control was prepared by adding 16 μL Lysis Buffer, 2 μL Detection Buffer, and 2 μL 1× anti-IRAK4-k Antibody Solution. In wells G10, H10, and 110, a negative control was prepared by adding 16 μL Lysis Buffer and 4 μL mixed Antibody Solution. The plate was sealed with a clear seal and covered with an aluminum lid. The plate was spun down at 800 g for 5 min and incubated in the dark at room temperature overnight. The next day, the plate was spun down at 800 g for 5 min. The samples were analyzed by a plate reader (Envision, PerkinElmer) using the Desnor 384 HTRF program.

| Structure (SMILES) | IC50 (IRAK4 [1]) [nM] | EC50 (IRAK4 [2]) [nM] | ALE THP1 HTRF YMIN (IRAK4 [2]) [%] |
| --- | --- | --- | --- |
| N#Cc1nn([C@H]2CC[C@H](C(=O)N3CCN(c4ccc5c(c4)C(=O)N(C4CCC(=O)NC4=O)C5=O)CC3)CC2)cc1NC(=O)c1cnn2ccc(N3CCNCC3)nc12 (stereo partly drawn) [Compound P-1, N-(3-cyano-1-((1r,4r)-4-(4-(2-(2,6-dioxopiperidin-3-yl)-1,3-dioxoisoindolin-5-yl)piperazine-1-carbonyl)cyclohexyl)-1H-pyrazol-4-yl)-5-(piperazin-1-yl)pyrazolo[1,5-a]pyrimidine-3-carboxamide hydrochloride] | 8.6 | 67 | 30 |
| N#Cc1nn(C2CCC(C(=O)N3CCN(c4ccc5c(c4)C(=O)N(C4CCC(=O)NC4=O)C5)CC3)CC2)cc1NC(=O)c1cnn2ccc(N3CCNCC3)nc12 (stereo not drawn) [Compound P-2] | 15.3 | > 10000 | 63 |
| N#Cc1nn(C2CCC(C(=O)NC3CCN(c4ccc5c(c4)C(=O)N(C4CCC(=O)NC4=O)C5=O)CC3)CC2)cc1NC(=O)c1cnn2ccc(N3CCNCC3)nc12 (stereo not drawn) [Compound P-3] | 4.3 | > 10000 | 54 |
| N#Cc1nn([C@H]2CC[C@H](C(=O)N3CCN(c4ccc5c(c4)CN(C4CCC(=O)NC4=O)C5=O)CC3)CC2)cc1NC(=O)c1cnn2ccc(N3CCNCC3)nc12 (stereo partly drawn) [Compound P-4] | 3.2 | > 10000 | 94 |
| N#Cc1nn([C@H]2CC[C@H](C(=O)N3CCN(c4ccc5c(c4)C(=O)N(C4CCC(=O)NC4=O)C5=O)CC3)CC2)cc1NC(=O)c1cnn2ccc(N3CCC[C@@H](N)C3)nc12 (stereo partly drawn) [Compound P-5] | 0.5 | > 10000 | 60 |
| N#Cc1nn([C@H]2CC[C@H](CN3CCN(c4ccc5c(c4)C(=O)N(C4CCC(=O)NC4=O)C5=O)CC3)CC2)cc1NC(=O)c1cnn2ccc(N3CCNCC3)nc12 (stereo partly drawn) [Compound P-6, N-[3-Cyano-1-[4-[[4-[2-(2,6-dioxo-3-piperidyl)-1,3-dioxo-isoindolin-5-yl]piperazin-1-yl]methyl]cyclohexyl]pyrazol-4-yl]-5-piperazin-1-yl-pyrazolo[1,5-a]pyrimidine-3-carboxamide dihydrochloride] | 8.1 | 2820 | 26 |
| N#Cc1nn(C2CCC(C(=O)N3CCN(c4ccc5c(c4)C(=O)N(C4CCC(=O)NC4=O)C5=O)CC3)CC2)cc1NC(=O)c1cnn2ccc(N[C@@H]3CCCC[C@@H]3N)nc12 (stereo partly drawn) [Compound P-7] | < 0.5 | > 10000 | 74 |
| N#Cc1nn(C2CCC(C(=O)N3CCN(c4ccc5c(c4)C(=O)N(C4CCC(=O)NC4=O)C5=O)CC3)CC2)cc1NC(=O)c1cnn2ccc(N3C[C@H](N)C[C@@H](F)C3)nc12 (stereo partly drawn) [Compound P-8] | < 0.5 | 8.9 | 33 |
| N#Cc1nn([C@H]2CC[C@H](CN3CCC(c4ccc5c(c4)C(=O)N(C4CCC(=O)NC4=O)C5)CC3)CC2)cc1NC(=O)c1cnn2ccc(N3CCNCC3)nc12 (stereo partly drawn) [Compound P-9] | 1.4 | > 10000 | 78 |
| N#Cc1nn(C2CCC(C(=O)N3CCC(c4ccc5c(c4)C(=O)N(C4CCC(=O)NC4=O)C5)CC3)CC2)cc1NC(=O)c1cnn2ccc(N3CCNCC3)nc12 (stereo not drawn) [Compound P-10] | 1.2 | > 10000 | 73 |
| N#Cc1nn([C@H]2CC[C@H](C(=O)N3CCN(c4ccc5c(c4)C(=O)N(C4CCC(=O)NC4=O)C5=O)CC3)CC2)cc1NC(=O)c1cnn2ccc(N3CCC[C@@H](O)C3)nc12 (stereo partly drawn) [Compound P-11] | 0.5 | > 10000 | 74 |
| N#Cc1nn(C2CCC(C(=O)N3CCC(c4ccc5c(c4)C(=O)N(C4CCC(=O)NC4=O)C5=O)CC3)CC2)cc1NC(=O)c1cnn2ccc(N3CCNCC3)nc12 (stereo not drawn) [Compound P-12] | 0.5 | 4280 | 66 |
| N[C@@H]1C[C@@H](F)CN(c2ccn3ncc(C(=O)Nc4cn([C@H]5CC[C@H](C(=O)N6CCN(c7ccc8c(c7)C(=O)N(C7CCC(=O)NC7=O)C8=O)CC6)CC5)nc4C(F)(F)F)c3n2)C1 (stereo partly drawn) [Compound P-13, 5-[(3R,5R)-3-Amino-5-fluoro-1-piperidyl]-N-[1-[4-[4-[2-(2,6-dioxo-3-piperidyl)-1,3-dioxo-isoindolin-5-yl]piperazine-1-carbonyl]cyclohexyl]-3-(trifluoromethyl)pyrazol-4-yl]pyrazolo[1,5-a]pyrimidine-3-carboxamide] | < 0.5 | 8 | 24 |
| O=C1CCC(N2C(=O)c3ccc(N4CCN(C(=O)[C@H]5CC[C@H](n6cc(NC(=O)c7cnn8ccc(N9CCNCC9)nc78)c(C(F)(F)F)n6)CC5)CC4)cc3C2=O)C(=O)N1 (stereo partly drawn) [Compound P-14] | 1.6 | 10000 | 73 |
| N[C@@H]1C[C@@H](F)CN(c2ccn3ncc(C(=O)Nc4cn([C@H]5CC[C@H](C(=O)N6CCN(c7ccc8c(c7)C(=O)N(C7CCC(=O)NC7=O)C8=O)CC6)CC5)nc4C(F)F)c3n2)C1 (stereo partly drawn) [Compound P-15] | < 0.5 | 8 | 18 |
| O=C1CCC(N2C(=O)c3ccc(N4CCN(C(=O)C5CCC(n6cc(NC(=O)c7cnn8ccc(N9CCNCC9)nc78)c(C(F)F)n6)CC5)CC4)cc3C2=O)C(=O)N1 (stereo not drawn) [Compound P-16] | 0.5 | 13 | 41 |
| N#Cc1nn([C@H]2CC[C@H](CN3CCC(c4ccc5c(c4)C(=O)N(C4CCC(=O)NC4=O)C5=O)CC3)CC2)cc1NC(=O)c1cnn2ccc(N3CCNCC3)nc12 (stereo partly drawn) [Compound P-17] | 1.2 | > 10000 | >95 |
| N#Cc1nn(C2CCC(C(=O)N3CCN(c4ccc5c(c4)C(=O)N(C4CCC(=O)NC4=O)C5)CC3)CC2)cc1NC(=O)c1cnn2ccc(N3C[C@H](N)C[C@@H](F)C3)nc12 (stereo partly drawn) [Compound P-18] | < 0.5 | > 10000 | 69 |
| N[C@@H]1C[C@@H](F)CN(c2ccn3ncc(C(=O)Nc4cn([C@H]5CC[C@H](C(=O)NC6CCN(c7ccc8c(c7)C(=O)N(C7CCC(=O)NC7=O)C8=O)CC6)CC5)nc4C(F)F)c3n2)C1 (stereo partly drawn) [Compound P-19] | < 0.5 | 7 | 14 |
| N[C@@H]1C[C@@H](F)CN(c2ccn3ncc(C(=O)Nc4cn([C@H]5CC[C@H](C(=O)NC6CCN(c7ccc8c(c7)C(=O)N(C7CCC(=O)NC7=O)C8=O)CC6)CC5)nc4C(F)(F)F)c3n2)C1 (stereo partly drawn) [Compound P-20] | < 0.5 | 11 | 22 |

Reference: patent publication US20260327233A1, “Heteroaryl Compounds as Ligand Directed Degraders of IRAK4” (Celgene Corporation, priority 2023, published 2026)
